In US9090600B2, “Fungicidal 4-substituted-3-{phenyl[(heterocyclylmethoxy)imino]methyl}-1,2,4-oxadizol-5(4H)-one derivatives” (BAYER INTELLECTUAL PROPERTY GMBH, priority 2011, dated 2015):
Marks after values point to notes of the source that are not given here.

How the values were obtained:
[1] = test system: Phytophthora infestans; type: in vivo; conditions: tomato plants, spray, 500 ppm, grading 5 days after contamination
[2] = pH 2.7

Row | SMILES | Eff. % [1] | LogP [2]
1 | CCC(CC)COC(=O)Nc1cccc(CO/N=C(/c2ccccc2)c2noc(=O)n2C)n1 [Example 192] | 100% | 4.78 [a]
2 | CCCCC(C)OC(=O)Nc1cccc(CO/N=C(/c2ccccc2)c2noc(=O)n2C)n1 (stereo not drawn) [Example 200] | 98% | 4.78 [a]
3 | CCn1c(/C(=N\OCc2cccc(NC(=O)OCc3ccccc3)n2)c2ccccc2)noc1=O [Example 201] | 100% | 4.24 [a]
4 | Cn1c(/C(=N\OCc2cccc(NC(=O)c3cc(F)cc(F)c3)n2)c2ccccc2)noc1=O [Example 202] | 98% | 3.92 [a]
5 | Cc1cccc(CCOC(=O)Nc2cccc(CO/N=C(/c3ccccc3)c3noc(=O)n3C)n2)c1 [Example 210] | 75% | 4.53 [a]
6 | COC(C(=O)Nc1cccc(CO/N=C(/c2ccccc2)c2noc(=O)n2C)n1)c1ccccc1 (stereo not drawn) [Example 218] | 80% | 3.85 [a]
7 | COc1ccccc1OC(C)C(=O)Nc1nc(CO/N=C(/c2ccccc2)c2noc(=O)n2C)cs1 (stereo not drawn) [Example 219] | 85% | 3.89 [a]
8 | CCC(C)(C)C(=O)Nc1cccc(CO/N=C(/c2ccccc2)c2noc(=O)n2C)n1 [Example 221] | 100% | 3.8 [a]
9 | CCCCCOC(=O)Nc1cccc(CO/N=C(/c2cccc(C)c2)c2noc(=O)n2C)n1 [Example 224] | 93% | 4.78 [a]
10 | CC(C)COC(=O)Nc1cccc(CO/N=C(/c2ccccc2)c2noc(=O)n2C)n1 [Example 225] | 99% | 4.01 [a]
11 | Cc1ccc(OCC(=O)Nc2nc(CO/N=C(/c3ccccc3)c3noc(=O)n3C)cs2)cc1 [Example 229] | 100% | 3.8 [a]
12 | CC(Oc1ccccc1)C(=O)Nc1cccc(CO/N=C(/c2ccccc2)c2noc(=O)n2C)n1 (stereo not drawn) [Example 232] | 100% | 3.96 [a]
13 | CC(C)=CCCC(C)CC(=O)Nc1cccc(CO/N=C(/c2ccccc2)c2noc(=O)n2C)n1 (stereo not drawn) [Example 235] | 100% | 4.88 [a]
14 | CC(CC1CCCCC1)Nc1cccc(CO/N=C(/c2ccccc2)c2noc(=O)n2C)n1 (stereo not drawn) [Example 236] | 100% | 5.14 [a]
15 | Cn1c(/C(=N\OCc2cccc(NC(=O)CC(F)(F)F)n2)c2ccccc2)noc1=O [Example 237] | 97% | 3.19 [a]
16 | Cn1c(/C(=N\OCc2csc(NC(=O)OCc3ccccc3)n2)c2ccccc2)noc1=O [Example 239] | 84% | 3.73 [a]
17 | Cn1c(/C(=N\OCc2cccc(NC(=O)c3ccccc3Br)n2)c2ccccc2)noc1=O [Example 243] | 99% | 3.67 [a]
18 | Cn1c(C(=NOCc2cccc(NC(=O)OC(C)(C)C)n2)c2ccc(F)cc2)noc1=O [Example 246] | 100% | 4.06 [a]
19 | Cn1c(C(=NOCc2cccc(NC(=O)CCCC(C)(C)C)n2)c2ccccc2)noc1=O [Example 247] | 99% | 4.53 [a]
20 | Cn1c(C(=NOCc2csc(NC(=O)c3ccc(F)cc3)n2)c2ccccc2)noc1=O [Example 251] | 98% | 3.55 [a]
21 | Cn1c(C(=NOCc2csc(NC(=O)c3ccccc3)n2)c2ccccc2)noc1=O [Example 257] | 100% | 3.44 [a]
22 | Cn1c(C(=NOCc2cccc(N(C(=O)OC(C)(C)C)C(=O)OC(C)(C)C)n2)c2cccc(F)c2)noc1=O [Example 261] | 100% | 4.51 [a]
23 | Cn1c(C(=NOCc2csc(NC(=O)c3cc(F)cc(F)c3)n2)c2ccccc2)noc1=O [Example 263] | 78% | 3.8 [a]

Row | SMILES | Eff. % [1] | LogP [2]
24 | Cn1c(C(=NOCc2cccc(NC(=O)Cc3cccs3)n2)c2ccccc2)noc1=O [Example 264] | 94% | 3.42 [a]
25 | CCCC(=O)Nc1cccc(CON=C(c2ccccc2)c2noc(=O)n2C)n1 [Example 266] | 100% | 3.13 [a]
26 | Cn1c(C(=NOCc2cccc(NC(=O)CCCC3CCCCC3)n2)c2ccccc2)noc1=O [Example 267] | 97% | 5.14 [a]
27 | CCCC(=O)Nc1nc(CON=C(c2ccccc2)c2noc(=O)n2C)cs1 [Example 271] | 80% | 3.02 [a]
28 | Cc1cccc(C(=NOCc2cccc(NC(=O)OCCc3ccccc3)n2)c2noc(=O)n2C)c1 [Example 272] | 88% | 4.49 [a]
29 | CCCCCC(C)OC(=O)Nc1cccc(CO/N=C(/c2ccccc2)c2noc(=O)n2C)n1 (stereo not drawn) [Example 285] | 88% | 5.19 [a]
30 | CC(C)COC(=O)Nc1nc(CO/N=C(/c2ccccc2)c2noc(=O)n2C)cs1 [Example 286] | 97% | 3.71 [a]
31 | Cn1c(/C(=N\OCc2cccc(NC(=O)OCCC#N)n2)c2ccccc2)noc1=O [Example 288] | 97% | 2.78 [a]
32 | Cn1c(/C(=N\OCc2csc(NC(=O)c3cccc(Br)c3)n2)c2ccccc2)noc1=O [Example 289] | 98% | 4.04 [a]
33 | COc1cccc(C(=NOCc2cccc(NC(=O)OCc3ccccc3)n2)c2noc(=O)n2C)c1 [Example 290] | 75% | 4.04 [a]
34 | Cn1c(/C(=N\OCc2cccc(NC(=O)OCCc3ccccc3)n2)c2cccc(F)c2)noc1=O [Example 297] | 95% | 4.26 [a]
35 | CCCCCOC(=O)Nc1cccc(CO/N=C(/c2ccccc2)c2noc(=O)n2CC)n1 [Example 300] | 100% | 4.72 [a]
36 | Cn1c(/C(=N\OCc2cccc(NC(=O)CCc3ccc(F)cc3)n2)c2ccccc2)noc1=O [Example 301] | 100% | 3.81 [a]
37 | CCCCCCCCCC(=O)Nc1cccc(CO/N=C(/c2ccccc2)c2noc(=O)n2C)n1 [Example 303] | 98% | 5.54 [a]
38 | C=CC(=O)Nc1cccc(CO/N=C(/c2ccccc2)c2noc(=O)n2C)n1 [Example 304] | 83% | 2.77 [a]
39 | Cn1c(/C(=N\OCc2cccc(NC(=O)C3(F)CC3)n2)c2ccccc2)noc1=O [Example 309] | 100% | 3.31 [a]
40 | COc1ccc(CCOC(=O)Nc2cccc(CO/N=C(/c3ccccc3)c3noc(=O)n3C)n2)cc1 [Example 310] | 70% | 4.08 [a]
41 | Cn1c(/C(=N\OCc2cccc(NC(=O)COc3ccccc3)n2)c2ccccc2)noc1=O [Example 313] | 100% | 3.73 [a]
42 | Cn1c(/C(=N\OCc2cccc(NC(=O)C3CC4C=CC3C4)n2)c2ccccc2)noc1=O (stereo not drawn) [Example 323] | 100% | 3.68 [a]
43 | CCCC(C)C(=O)Nc1cccc(CO/N=C(/c2cccc(OC)c2)c2noc(=O)n2C)n1 (stereo not drawn) [Example 328] | 75% | 3.87 [a]
44 | Cn1c(/C(=N\OCc2cccc(NC(=O)c3cccc(Oc4ccccc4)c3)n2)c2ccccc2)noc1=O [Example 329] | 93% | 4.61 [a]
45 | Cn1c(/C(=N\OCc2cccc(NC(=O)c3ccccc3I)n2)c2ccccc2)noc1=O [Example 331] | 98% | 3.76 [a]
